In patent US20240360135A1, “IMIDAZO[1,2-B]PYRIDAZINYL COMPOUNDS AND USES THEREOF” (Sumitomo Pharma Oncology, Inc., priority 2021, published 2024):
Read-outs that look alike come from different tables or passages of the source.

Experiments:
PIM2 = target: T1, PIM2 (Homo sapiens, UniProt Q9P1W9); assay: RBC HotSpot kinase inhibition assay, PIM2; assay type: biochemical
T1 construct: purchased Invitrogen PR6347B
Protocol: (§1) Reagents. Base Reaction Buffer: 20 mM Hepes (pH 7.5), 10 mM MgCl2, 1 mM EGTA, 0.01% Brij35, 0.02 mg/ml BSA, 0.1 mM Na3VO4, 2 mM DTT, 1% DMSO. The following kinases were used in the assay at the indicated concentrations:
(§2) The following substrates were used in combination with the indicated kinases in the assay at the indicated concentration:
(§3) No cofactors were added to any of the reactions.
(§4) • 1. Prepared substrate in freshly prepared Reaction Buffer. • 2. Delivered kinase into the substrate solution and gently mixed. • 3. Delivered test compound in 100% DMSO into the kinase reaction mixture by Acoustic technology (Echo550; nanoliter range), incubated for 20 minutes at room temperature. • 4. Delivered ^33P-ATP into the reaction mixture to initiate the reaction. • 5. Incubated for 2 hours at room temperature. • 6. Detected kinase activity by P81 filter-binding method.
(§5) The results of the RBC HotSpot™ kinase assay are set forth in Table 1, wherein “A” indicates an IC50<10 nM, “B” indicates an IC50 wherein 10 nM≤IC50≤100 nM, and “C” indicates an IC50>100 nM.

[1] = system: bleomycin-induced lung fibrosis; assay: Bleomycin-induced lung fibrosis model in mice; assay type: in vivo, C57BL/6J mice; settings: day 21
Protocol: Overview. The most common animal model of pulmonary fibrosis is the bleomycin-induced lung fibrosis model in rodents. This model is commonly used to investigate biology and potential therapies for fibrotic diseases affecting the lung, such as idiopathic pulmonary fibrosis (IPF). Bleomycin, a cytotoxic drug, is administered to mice or rats, and causes direct cell injury triggered by DNA strand breaks, which leads to an overproduction of reactive oxygen species causing inflammation, pulmonary toxicity, activation of fibroblasts and subsequent fibrosis. Fibrosis is hallmarked by aberrant activation of lung epithelial cells and accumulation of fibroblasts and myofibroblasts with excessive production of extracellular matrix such as collagen.
Hydroxyproline is a major component of protein collagen, and plays a key role in the stability of the collagen triple helix. […]
Procedure. […] The snap frozen portion of the lung tissue was subjected to hydroxyproline quantification, which is used as a common biomarker of fibrosis. […] The histological sections were scored using a modified Ashcroft scale, the number of mononuclear cell aggregates and alveolar mixed infiltrates as well as the levels of collagen. The mice were weighed on day seven, fourteen, and twenty-one to monitor weight changes, and mortality and clinical observations were recorded daily. […]

PIM1 = target: T2, PIM1 (Homo sapiens, UniProt P11309); assay: RBC HotSpot kinase inhibition assay, PIM1; assay type: biochemical
T2 construct: purchased Invitrogen PV3503
Protocol: as §1, §2, §3, §4, §5

A549 cells = assay: Wound healing assay in A549 cells with TGF-β; assay type: cell-based; settings: for IC50: Homo sapiens, wound healing, A549, 5 ng/ml TGF-β; for migration (wound closure): after 72 hours, vs vehicle control with TGF-β
Description: Overview. Epithelial to mesenchymal transition (EMT) is used to describe epithelial cells losing their cell to cell adhesion and polarity while gaining migratory and invasive properties. The process of EMT is required for normal embryonic development and wound healing, but has also been implicated in fibrosis. In humans, TGF-β signaling is the main driver of EMT, and inhibiting this pathway may be beneficial in various diseases such as fibrosis. A wound healing assay was used to study cell migration and cell-cell interaction, and probe the EMT properties of lung epithelial cells (A549) in presence of Compound 2 or Compound 4.
Procedure. A549 cells (ATCC, CCL-185) were seeded into the ImageLock plate (Essen Bioscience) at 2×10^4 cells/well in 100 μL of complete growth media. Cells were incubated overnight at 37° C., 5% CO2. The next day, cells were washed with 1×PBS and Compound 2, Compound 4, DMSO control (±TGF-β) or galunisertib (TGF-β inhibitor used as positive control) was added to the cells in a serum-free F12K media (0.2% DMSO final, 10 μM starting concentration, 3-fold dilution, 8-doses) in presence of 5 ng/ml TGF-β. Cells were incubated for 48 hours (until they reached confluency) at 37° C., 5% CO2. Wounds were simultaneously created using a WoundMaker™ (Essen Bioscience). Debris and non-attached cells were removed by gently washing once with F12K.
Test compound or control compound and TGF-β were added to the cells in F12K+10% FBS as previously described. The ImageLock plate was put into IncuCyteS3 instrument installed inside a 5% CO2 incubator. The plate was allowed to equilibrate in the IncuCyteS3 instrument for 15 minutes prior to scheduling the first scan and data recording. The plate was incubated for 72 hours at 37° C., and wound closure was recorded in real time with the IncuCyte S3 imaging system. Percentage of relative wound density was quantitatively calculated by the IncuCyte software.

T1 sequence (Q9P1W9 whole entry): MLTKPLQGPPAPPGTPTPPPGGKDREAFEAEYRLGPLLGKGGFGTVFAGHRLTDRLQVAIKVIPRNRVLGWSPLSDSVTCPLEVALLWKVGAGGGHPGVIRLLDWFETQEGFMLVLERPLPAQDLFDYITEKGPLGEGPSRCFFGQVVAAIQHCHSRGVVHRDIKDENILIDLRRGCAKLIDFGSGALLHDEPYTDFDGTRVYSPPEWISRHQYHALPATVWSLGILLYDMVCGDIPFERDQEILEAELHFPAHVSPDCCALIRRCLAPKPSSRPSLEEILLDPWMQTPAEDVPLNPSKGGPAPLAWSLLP
T2 sequence (P11309 whole entry): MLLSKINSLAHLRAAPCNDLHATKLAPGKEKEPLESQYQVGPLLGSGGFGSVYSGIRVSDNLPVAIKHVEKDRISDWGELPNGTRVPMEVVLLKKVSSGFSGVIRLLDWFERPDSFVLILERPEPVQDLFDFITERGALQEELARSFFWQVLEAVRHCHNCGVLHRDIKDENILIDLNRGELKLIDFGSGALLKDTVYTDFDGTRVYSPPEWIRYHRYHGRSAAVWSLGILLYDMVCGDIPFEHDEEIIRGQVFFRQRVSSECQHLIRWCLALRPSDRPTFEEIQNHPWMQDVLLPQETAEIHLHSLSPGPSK

Structure (SMILES)	IC50 (PIM2) [µM]	reduction of hydroxyproline in lung tissue ([1]; 15 milligrams per kilogram twice a day)	IC50 (PIM1) [µM]	IC50 (A549 cells; 24 h, read-out: IC50 (μM) 24 h) [µM]	IC50 (A549 cells; 48 h, read-out: IC50 (μM) 48 h) [µM]	IC50 (A549 cells; 72 h, read-out: IC50 (μM) 72 h) [µM]	migration (wound closure) (A549 cells)	Ashcroft score ([1]; 20 milligrams per kilogram twice a day)
CC(C)(O)C12CCC(Nc3ccc4ncc(-c5cc(C6CC6)[nH]n5)n4n3)(CC1)CC2 [Compound 4, 2-(4-((3-(5-cyclopropyl-1H-pyrazol-3-yl)imidazo[1,2-b]pyridazin-6-yl)amino)bicyclo[2.2.2]octan-1-yl)propan-2-ol]	0.01 to 0.1	greatest and most statistically significant reduction	< 0.01	1 to 10	1 to 10	1 to 10	strongly inhibited	
Cc1cc(-c2cnc3ccc(NC45CCC(C(C)(C)O)(CC4)CC5)nn23)n[nH]1 [Compound 2, 2-(4-((3-(5-methyl-1H-pyrazol-3-yl)imidazo[1,2-b]pyridazin-6-yl)amino)bicyclo[2.2.2]octan-1-yl)propan-2-ol]	> 0.1		< 0.01	1 to 10	1 to 10	1 to 10	strongly inhibited	significantly reduced
